# Results reported in ChEMBL document CHEMBL3044672, “N9- and N7-(Chloromethyl Phenymethyl)Chloropurine Derivatives from , '-Dichloroxylenes: Synthesis and Anticancer Activity” (2005).
# Experiments:
# Format in all cases: functional
# A498 = experiment: Cytotoxicity against Homo sapiens (human) A498 cells after 48 hr by sulforhodamine B assay; details: A498, 48 h
# ACHN = experiment: Cytotoxicity against Homo sapiens (human) ACHN cells after 48 hr by sulforhodamine B assay; details: for CC50: read-out: LC50 (the source's name)
# 786-0 = experiment: Cytotoxicity against Homo sapiens (human) 786-0 cells after 48 hr by sulforhodamine B assay; details: 786-0, 48 h
# OVCAR-5 = experiment: Cytotoxicity against Homo sapiens (human) OVCAR5 cells after 48 hr by sulforhodamine B assay; details: OVCAR-5, 48 h; for CC50: read-out: LC50 (the source's name)
# IGROV-1 = experiment: Cytotoxicity against Homo sapiens (human) IGROV1 cells after 48 hr by sulforhodamine B assay; details: IGROV-1, 48 h
# OVCAR-3 = experiment: Cytotoxicity against Homo sapiens (human) OVCAR3 cells after 48 hr by sulforhodamine B assay; details: OVCAR-3, 48 h
# UACC-257 = experiment: Cytotoxicity against Homo sapiens (human) UACC257 cells after 48 hr by sulforhodamine B assay; details: UACC-257, 48 h
# SK-MEL-28 = experiment: Cytotoxicity against Homo sapiens (human) SK-MEL-28 cells after 48 hr by sulforhodamine B assay; details: SK-MEL-28, 48 h
# SK-MEL-2 = experiment: Cytotoxicity against Homo sapiens (human) SK-MEL-2 cells after 48 hr by sulforhodamine B assay; details: SK-MEL-2, 48 h
# M14 = experiment: Cytotoxicity against Homo sapiens (human) M14 cells after 48 hr by sulforhodamine B assay; details: M14, 48 h
# U-251 = experiment: Cytotoxicity against Homo sapiens (human) U251 cells after 48 hr by sulforhodamine B assay; details: U-251, 48 h
# T47D = experiment: Cytotoxicity against Homo sapiens (human) T47D cells after 48 hr by sulforhodamine B assay
# MDA-MB-435 = experiment: Cytotoxicity against Homo sapiens (human) MDA-MB-435 cells after 48 hr by sulforhodamine B assay; details: MDA-MB-435, 48 h
# Hs-578T = experiment: Cytotoxicity against Homo sapiens (human) Hs 578T cells after 48 hr by sulforhodamine B assay
# [1] = Cytotoxicity against Homo sapiens (human) NCI-ADR-RES cells after 48 hr by sulforhodamine B assay
# DU-145 = experiment: Cytotoxicity against Homo sapiens (human) DU145 cells after 48 hr by sulforhodamine B assay; details: DU-145, 48 h
# UO-31 = experiment: Cytotoxicity against Homo sapiens (human) UO31 cells after 48 hr by sulforhodamine B assay; details: UO-31, 48 h
# TK-10 = experiment: Cytotoxicity against Homo sapiens (human) TK10 cells after 48 hr by sulforhodamine B assay; details: TK-10, 48 h; for CC50: read-out: LC50 (the source's name)
# CAKI-1 = experiment: Cytotoxicity against Homo sapiens (human) Caki1 cells after 48 hr by sulforhodamine B assay; details: CAKI-1, 48 h; for CC50: read-out: LC50 (the source's name)
# SF-295 = experiment: Cytotoxicity against Homo sapiens (human) SF295 cells after 48 hr by sulforhodamine B assay; details: SF-295, 48 h; for CC50: read-out: LC50 (the source's name)
# SW-620 = experiment: Cytotoxicity against Homo sapiens (human) SW620 cells after 48 hr by sulforhodamine B assay; details: SW-620, 48 h; for CC50: read-out: LC50 (the source's name)
# HCT-15 = experiment: Cytotoxicity against Homo sapiens (human) HCT15 cells after 48 hr by sulforhodamine B assay; details: HCT-15, 48 h; for CC50: read-out: LC50 (the source's name)
# HCT-116 = experiment: Cytotoxicity against Homo sapiens (human) HCT116 cells after 48 hr by sulforhodamine B assay; details: HCT-116, 48 h; for CC50: read-out: LC50 (the source's name)
# HCC 2998 = experiment: Cytotoxicity against Homo sapiens (human) HCC2998 cells after 48 hr by sulforhodamine B assay; details: HCC 2998, 48 h; for CC50: read-out: LC50 (the source's name)
# NCI-H460 = experiment: Cytotoxicity against Homo sapiens (human) NCI-H460 cells after 48 hr by sulforhodamine B assay; details: NCI-H460, 48 h; for CC50: read-out: LC50 (the source's name)
# NCI-H322M = experiment: Cytotoxicity against Homo sapiens (human) NCI-H322M cells after 48 hr by sulforhodamine B assay; details: for CC50: read-out: LC50 (the source's name)
# NCI-H226 = experiment: Cytotoxicity against Homo sapiens (human) NCI-H226 cells after 48 hr by sulforhodamine B assay; details: NCI-H226, 48 h; for CC50: read-out: LC50 (the source's name)
# HOP-92 = experiment: Cytotoxicity against Homo sapiens (human) HOP92 cells after 48 hr by sulforhodamine B assay; details: HOP-92, 48 h
# A549 = experiment: Cytotoxicity against Homo sapiens (human) A549 cells after 48 hr by sulforhodamine B assay; details: A549, 48 h
# MOLT-4 = experiment: Cytotoxicity against Homo sapiens (human) MOLT4 cells after 48 hr by sulforhodamine B assay; details: MOLT-4, 48 h; for CC50: read-out: LC50 (the source's name)
# CCRF-CEM = experiment: Cytotoxicity against Homo sapiens (human) CCRF-CEM cells after 48 hr by sulforhodamine B assay; details: for CC50: read-out: LC50 (the source's name)
# MCF7 = experiment: Cytotoxicity against Homo sapiens (human) MCF7 cells assessed as cell growth at 10^-4 M after 48 hr by Alamar blue assay; details: MCF7, 48 h, read-out: Activity
# [2] = read-out: LC50 (the source's name)
compound,measurement,setting,value
ClCc1ccccc1Cn1cnc2ncnc(Cl)c21,GI50,A498,18.6 µM
same,"LC50 (lethal concentration, 50% cell kill)",A498,57.5 µM
same,TGI,A498,33.1 µM
same,GI50,ACHN,1.99 µM
same,TGI,ACHN,4.26 µM
same,CC50,ACHN,9.12 µM
same,GI50,786-0,3.98 µM
same,LC50,786-0,47.9 µM
same,TGI,786-0,12.9 µM
same,GI50,OVCAR-5,2.81 µM
same,TGI,OVCAR-5,7.24 µM
same,CC50,OVCAR-5,26.9 µM
same,GI50,IGROV-1,4.26 µM
same,LC50,IGROV-1,> 100 µM
same,TGI,IGROV-1,22.9 µM
same,GI50,OVCAR-3,2.04 µM
same,LC50,OVCAR-3,8.31 µM
same,TGI,OVCAR-3,4.16 µM
same,GI50,UACC-257,5.88 µM
same,LC50 (concentration killing 50% of cells),UACC-257,61.6 µM
same,TGI,UACC-257,21.9 µM
same,GI50,SK-MEL-28,4.46 µM
same,LC50 (concentration killing 50% of cells),SK-MEL-28,79.4 µM
same,TGI,SK-MEL-28,18.6 µM
same,GI50,SK-MEL-2,4.16 µM
same,LC50 (concentration killing 50% of cells),SK-MEL-2,> 100 µM
same,TGI,SK-MEL-2,19.5 µM
same,GI50,M14,1.9 µM
same,LC50,M14,27.5 µM
same,TGI,M14,5.12 µM
same,GI50,U-251,1.9 µM
same,LC50 (concentration killing 50% of cells),U-251,10.2 µM
same,TGI,U-251,4.36 µM
same,GI50,T47D,1.99 µM
same,LC50,T47D,4.26 µM
same,TGI,T47D,4.26 µM
same,GI50,MDA-MB-435,1.94 µM
same,LC50,MDA-MB-435,7.58 µM
same,TGI,MDA-MB-435,3.8 µM
same,GI50,Hs-578T,2.29 µM
same,LC50,Hs-578T,66.1 µM
same,TGI,Hs-578T,6.02 µM
same,GI50,[1],2.08 µM
same,LC50 (concentration killing 50% of cells),[1],6.54 µM
same,TGI,[1],4.46 µM
same,GI50,DU-145,2.95 µM
same,LC50,DU-145,33.1 µM
same,TGI,DU-145,10.2 µM
same,GI50,UO-31,3.23 µM
same,LC50 (concentration causing 50% net cell kill),UO-31,77.6 µM
same,TGI,UO-31,10.7 µM
same,GI50,TK-10,3.46 µM
same,TGI,TK-10,9.54 µM
same,CC50,TK-10,33.9 µM
same,GI50,CAKI-1,2.34 µM
same,TGI,CAKI-1,4.16 µM
same,CC50,CAKI-1,7.41 µM
same,GI50,SF-295,7.94 µM
same,TGI,SF-295,20.4 µM
same,CC50,SF-295,46.8 µM
same,GI50,SW-620,2.23 µM
same,TGI,SW-620,4.67 µM
same,CC50,SW-620,10 µM
same,GI50,HCT-15,1.38 µM
same,TGI,HCT-15,2.88 µM
same,CC50,HCT-15,6.16 µM
same,GI50,HCT-116,1.51 µM
same,TGI,HCT-116,4.07 µM
same,CC50,HCT-116,40.7 µM
same,GI50,HCC 2998,2.23 µM
same,TGI,HCC 2998,4.26 µM
same,CC50,HCC 2998,7.94 µM
same,GI50,NCI-H460,13.5 µM
same,TGI,NCI-H460,60.2 µM
same,CC50,NCI-H460,> 100 µM
same,GI50,NCI-H322M,4.67 µM
same,TGI,NCI-H322M,15.8 µM
same,CC50,NCI-H322M,40.7 µM
same,GI50,NCI-H226,3.38 µM
same,TGI,NCI-H226,7.94 µM
same,CC50,NCI-H226,> 100 µM
same,GI50,HOP-92,4.36 µM
same,TGI,HOP-92,12.9 µM
same,CC50,HOP-92; [2],51.3 µM
same,GI50,A549,4.46 µM
same,TGI,A549,24 µM
same,CC50,A549; [2],> 100 µM
same,GI50,MOLT-4,1.65 µM
same,TGI,MOLT-4,4.26 µM
same,CC50,MOLT-4,16.6 µM
same,GI50,CCRF-CEM,1.44 µM
same,TGI,CCRF-CEM,3.54 µM
same,CC50,CCRF-CEM,8.7 µM
same,growth at 100 µM,MCF7,1%
ClCc1ccccc1Cn1cnc2c(Cl)nc(Cl)nc21,GI50,A498,2.4 µM
same,"LC50 (lethal concentration, 50% cell kill)",A498,9.55 µM
same,TGI,A498,4.78 µM
same,GI50,ACHN,0.47 µM
same,TGI,ACHN,1.62 µM
same,CC50,ACHN,4.16 µM
same,GI50,786-0,1.86 µM
same,LC50,786-0,6.45 µM
same,TGI,786-0,3.47 µM
same,GI50,OVCAR-5,1.58 µM
same,TGI,OVCAR-5,2.95 µM
same,CC50,OVCAR-5,5.62 µM
same,GI50,IGROV-1,1.54 µM
same,LC50,IGROV-1,7.07 µM
same,TGI,IGROV-1,3.31 µM
same,GI50,OVCAR-3,0.21 µM
same,LC50,OVCAR-3,1.54 µM
same,TGI,OVCAR-3,0.51 µM
same,GI50,UACC-257,1.82 µM
same,LC50 (concentration killing 50% of cells),UACC-257,8.51 µM
same,TGI,UACC-257,3.89 µM
same,GI50,SK-MEL-28,1.23 µM
same,TGI,SK-MEL-28,3.31 µM
same,GI50,SK-MEL-2,2.18 µM
same,LC50 (concentration killing 50% of cells),SK-MEL-2,8.51 µM
same,TGI,SK-MEL-2,4.36 µM
same,GI50,M14,1.38 µM
same,LC50,M14,5.75 µM
same,TGI,M14,2.81 µM
same,GI50,U-251,0.31 µM
same,LC50 (concentration killing 50% of cells),U-251,4.57 µM
same,TGI,U-251,1.02 µM
same,GI50,T47D,1.99 µM
same,LC50,T47D,> 100 µM
same,TGI,T47D,5.49 µM
same,GI50,MDA-MB-435,1.62 µM
same,LC50,MDA-MB-435,6.45 µM
same,TGI,MDA-MB-435,3.23 µM
same,GI50,Hs-578T,1.17 µM
same,LC50,Hs-578T,> 100 µM
same,TGI,Hs-578T,3.54 µM
same,GI50,[1],1.51 µM
same,LC50 (concentration killing 50% of cells),[1],6.16 µM
same,TGI,[1],3.02 µM
same,GI50,DU-145,0.13 µM
same,LC50,DU-145,6.31 µM
same,TGI,DU-145,2.95 µM
same,GI50,UO-31,0.42 µM
same,LC50 (concentration causing 50% net cell kill),UO-31,5.92 µM
same,TGI,UO-31,1.51 µM
same,GI50,TK-10,1.45 µM
same,TGI,TK-10,2.88 µM
same,CC50,TK-10,5.62 µM
same,GI50,CAKI-1,0.36 µM
same,TGI,CAKI-1,0.89 µM
same,CC50,CAKI-1,3.09 µM
same,GI50,SF-295,1.9 µM
same,TGI,SF-295,3.38 µM
same,CC50,SF-295,6.02 µM
same,GI50,SW-620,0.15 µM
same,TGI,SW-620,0.35 µM
same,CC50,SW-620,0.81 µM
same,GI50,HCT-15,0.33 µM
same,TGI,HCT-15,1.2 µM
same,CC50,HCT-15,4.78 µM
same,GI50,HCT-116,0.19 µM
same,TGI,HCT-116,0.38 µM
same,CC50,HCT-116,0.75 µM
same,TGI,HCC 2998,3.38 µM
same,CC50,HCC 2998,6.16 µM
same,GI50,NCI-H460,3.31 µM
same,TGI,NCI-H460,8.71 µM
same,CC50,NCI-H460,> 100 µM
same,GI50,NCI-H322M,1.73 µM
same,TGI,NCI-H322M,3.27 µM
same,CC50,NCI-H322M,5.88 µM
same,GI50,NCI-H226,1.73 µM
same,TGI,NCI-H226,3.38 µM
same,CC50,NCI-H226,6.76 µM
same,GI50,HOP-92,0.35 µM
same,TGI,HOP-92,0.97 µM
same,GI50,A549,2.23 µM
same,TGI,A549,4.67 µM
same,GI50,MOLT-4,0.2 µM
same,TGI,MOLT-4,0.63 µM
same,CC50,MOLT-4,3.54 µM
same,GI50,CCRF-CEM,0.03 µM
same,TGI,CCRF-CEM,0.09 µM
same,CC50,CCRF-CEM,0.47 µM
same,growth at 100 µM,MCF7,0%
